Entries after “also recorded” stand apart in the source; their conditions may differ.
Assays:
[1] = system: mast cell burden (serum tryptase, bone marrow mast cells, KIT D816V allele burden); assay: Phase 2 PIONEER trial Part 1: measures of mast cell burden; assay type: in vivo, human
Description: (§1) This is a Phase 2, randomized, double-blind, placebo-controlled study comparing the efficacy and safety of Compound (I)+best supportive care (BSC) with placebo+BSC in patients with ISM and SSM whose symptoms are not adequately controlled by BSC. The study is conducted in three parts. In Part 1, the optimal dose Compound (I) (recommended phase 2 dose (RP2D)) was identified in patients with ISM. In Part 2, patients with ISM and SSM are randomly assigned to the RP2D of Compound (I) identified in Part 1+BSC, or to matching placebo+BSC. In Part 3, patients who have completed treatment in Part 1 or Part 2 of the study participate in a long-term extension, receiving Compound (I) at the RP2D+BSC.
Once BSC was optimized (between Day −98 and Day −71) and doses were stable for ≥14 days, ISM-SAF data was collected for an additional 14 days to determine eligibility based on symptom severity i.e., to identify ISM and SSM patients having moderate-to-severe symptoms. Patients not meeting the symptom severity threshold were deemed screen failures and were not eligible for study participation. Patients having moderate-to-severe symptoms and meeting the threshold for symptom severity began other screening procedures, including the following: Bone marrow (BM) biopsy (an archival sample obtained within the preceding 24 weeks or a fresh sample) and skin biopsy of lesional and nonlesional skin (in patients with cutaneous mastocytosis (CM)) were performed for confirmation of SM diagnosis and quantification of mast cells (MCs); patients with CM (maculopapular) had skin photographs taken. […]
Compound (I) was administered orally, once a day in continuous 28-day cycles. Patients were assessed weekly for the first 4 weeks, then every 4 weeks (until the RP2D was determined) for safety, laboratory monitoring, and quality of life (QoL) assessments. […] After completion of 12 weeks of treatment, BM and skin biopsy were repeated for MC quantification and skin photographs were taken in patients with baseline CM. […]

[2] = system: patients with indolent systemic mastocytosis; assay: Phase 2 PIONEER trial Part 1: ISM-SAF symptom scores and MC-QoL; assay type: in vivo, human
Description: as §1
In Part 1, immediately after informed consent was obtained, management of SM symptoms was optimized, and BSC medication doses and schedules for SM symptom management were stabilized, if needed, over four weeks. Within five days after informed consent is obtained, ISM-SAF (ISM Symptom Assessment Form) data collection begins. The number of anaphylactic episodes treated with epinephrine and all concomitant medications received for any indication were collected from the time of informed consent.
Once BSC was optimized (between Day −98 and Day −71) and doses were stable for ≥14 days, ISM-SAF data was collected for an additional 14 days to determine eligibility based on symptom severity i.e., to identify ISM and SSM patients having moderate-to-severe symptoms. Patients not meeting the symptom severity threshold were deemed screen failures and were not eligible for study participation. Patients having moderate-to-severe symptoms and meeting the threshold for symptom severity began other screening procedures, including the following: Bone marrow (BM) biopsy (an archival sample obtained within the preceding 24 weeks or a fresh sample) and skin biopsy of lesional and nonlesional skin (in patients with cutaneous mastocytosis (CM)) were performed for confirmation of SM diagnosis and quantification of mast cells (MCs); patients with CM (maculopapular) had skin photographs taken. Additional procedures include: magnetic resonance imaging/computed tomography scan of the brain; bone densitometry; serum tryptase, KIT D816 mutation testing; routine laboratory testing; ECG; and physical examination. All procedures are completed within a 6-week period before the final 14-day collection of baseline ISM-SAF symptoms is initiated.
Once screening procedures were completed, patients had ISM-SAF data collected for another 2 weeks (14 days) to establish baseline scores, after which patients meeting all eligibility requirements were randomly assigned to treatment and began dosing.
In Part 1 of the study, approximately 40 patients were randomly assigned to 1 of 3 doses of Compound (I) or to placebo. Each dose-level cohort and placebo group in Part 1 was composed of 10 patients. The 3 dose levels of Compound (I) were tested in parallel: 25, 50, and 100 mg. Patients, study staff, and the Sponsor were blinded to treatment assignment.
Compound (I) was administered orally, once a day in continuous 28-day cycles. Patients were assessed weekly for the first 4 weeks, then every 4 weeks (until the RP2D was determined) for safety, laboratory monitoring, and quality of life (QoL) assessments. Intensive pharmacokinetic (PK) sampling was performed in all patients. The ISM-SAF was completed once a day. After completion of 12 weeks of treatment, BM and skin biopsy were repeated for MC quantification and skin photographs were taken in patients with baseline CM.
The RP2D was determined based on the efficacy, safety, and PK at each dose level. The primary evaluation of efficacy was the symptom improvement using the ISM-SAF. The primary criterion for selection of the RP2D was the dose of Compound (I) that produces the maximum reduction in total symptom score (TSS), as assessed using the ISM-SAF at Week 12 compared with Baseline (Day −14 to Day −1). […]

[3] = system: patients with unresectable GIST; assay: Phase 1 dose escalation and expansion study in advanced GIST: safety; assay type: in vivo
Description: Patients: Eligibility criteria for the phase 1 dose escalation and expansion study included provision of written informed consent, age ≥18 years, Eastern Cooperative Oncology Group performance status ≤2, and adequate end-organ function. The dose escalation part of the trial was open to patients with refractory solid tumors or unresectable GIST; however, only GIST patients were enrolled.
Part 1 followed a 3+3 dose-escalation design, starting at 30 mg and continuing until the maximum tolerated dose (MTD) or the recommended phase 2 dose (RP2D) below the MTD was determined. Intrapatient dose escalation was permitted, and additional accrual was allowed to dose levels previously determined tolerable. The part 1 MTD was used to initiate the part 2 expansion.
All patients underwent tumor imaging for response assessment via computed tomography (CT) or magnetic resonance imaging (MRI) at screening, every two cycles through and including cycle 13, then every three months until progression or discontinuation. Target and non-target lesions were identified and assessed per mRECIST 1.1 for GIST by independent, blinded, central radiographic review (BioTelemetry, Inc., Rockville, MD, USA). […]

## Cn1cc(-c2cc3c(N4CCN(c5ncc([C@@](C)(N)c6ccc(F)cc6)cn5)CC4)ncnn3c2)cn1 [Compound (I), (S)-1-(4-fluorophenyl)-1-(2-(4-(6-(1-methyl-1H-pyrazol-4-yl)pyrrolo[2,1-f][1,2,4]triazin-4-yl)piperazin-1-yl)pyrimidin-5-yl)ethan-1-amine]
[1]; 25 mg QD, similar to 50 mg and 100 mg QD
  Blood KIT D816V allele fraction: significant reduction
[1]; 25 mg once daily, ISM patients, vs placebo, FIG. 13
  Serum tryptase, mast cell burden and KIT D816V allele burden: significant reductions; also recorded: robust reductions; also recorded: robust declines
[1]; all dose cohorts (25, 50, 100 mg once daily), ISM patients, FIG. 12
  KIT D816V allele burden: significant decreases
[2]; 25 mg QD (n = 9), at 16 weeks
  Mean percent change in ISM-SAF TSS: −31%
  Mean percent change in ISM-SAF gastrointestinal domain: −25%
  Mean percent change in ISM-SAF neurological symptoms: −26%
  Mean percent change in ISM-SAF skin domain: −37%
[2]; 25 mg QD (seven patients), 16 weeks
  Mean reduction in total MC-QoL score: 34%
[2]; 25 mg QD, baseline to 16 weeks
  Mean reduction in total symptom score (TSS), ISM-SAF: 31%
[2]; 25 mg QD, week 16
  Quality of life, MC-QoL overall score and domain scores: improvements in quality of life; also recorded: improvements in all four domains
[2]; 25 mg once daily, 16 weeks
  Reduction in ISM-SAF TSS and each symptom in the total domain score: statistically significant reduction
[2]; across all Compound (I) dose cohorts, 16 weeks, p=0.001 vs placebo
  Mean improvement in ISM-SAF TSS: approximately 30%
[3]; 300 mg dose
  Decreased appetite, Grade 1/2 event: 38%
  Diarrhea, Grade 1/2 event: 41%
  Fatigue, Grade 1/2 event: 38%
  Nausea, Grade 1/2 event: 69%
[3]; 600 mg once daily, Part 1
  Patients with cycle 1 dose-limiting toxicities: Two
[3]; 69 patients
  Patients requiring at least one dose reduction or treatment interruption: 84%
[3]; 82 patients enrolled
  Discontinuation for adverse events considered related to Compound (I): 12%
  Reason for treatment discontinuation: adverse events: 34%
  Reason for treatment discontinuation: disease progression: 59%
  Treatment-related deaths: no treatment-related deaths
[3]; 82 patients enrolled (44 patients)
  Patients who discontinued treatment: 54%
[3]; 400-mg dose
  Fatigue, most common event: 47%
  Nausea, most common event: 71%
  Periorbital edema, most common event: 47%
  Vomiting, most common event: 47%
[3]; PDGFRA D842V population
  Discontinuation for adverse events considered related to Compound (I): 14%
  Reason for treatment discontinuation: adverse events: 63%
  Reason for treatment discontinuation: disease progression: 21%
[3]; PDGFRA D842V population (19/56)
  Patients who discontinued treatment: 34%
[3]; as printed after the 300 mg Grade 1/2 events (2 patients)
  Events resulting in treatment discontinuation, patients: 2%
[3]; as printed after the 300 mg Grade 1/2 events (19 patients)
  Events primarily Grade 1, patients: 23%
[3]; both events Grade 3, non-fatal
  Intracranial hemorrhage: 2 patients
[3]; doses of 30 to 400 mg per day, Part 1
  Cycle-1 dose limiting toxicity: No cycle-1 dose limiting toxicity
[3]; once daily, oral
  Maximum tolerated dose: 400 mg
[3]; once daily, oral, GIST
  Recommended phase 2 dose: 300 mg
[3]; regardless of dose
  Anemia, Grade 3/4 event: 30%
[3]; regardless of dose (47 patients)
  Grade 3/4 events, patients: 57%
[3]; safety population
  Grade of most treatment-related adverse events: grade 1 or 2
[3]; safety population (2 patients)
  Encephalopathy: 2%
[3]; safety population (7 patients)
  Confusional state: 9%
[3]; safety population (8 patients)
  Cognitive disorder: 10%
[3]; safety population (33 patients)
  Cognitive effects, patients: 40%
[3]; safety population (n=25)
  Memory impairment: 30%
